Laboratory results reported in ChEMBL document CHEMBL5154691, “Discovery of novel verinurad analogs as dual inhibitors of URAT1 and GLUT9 with improved Druggability for the treatment of hyperuricemia” (Eur J Med Chem, 2022).

Legend:
[1] = Half life in Sprague-Dawley rat at 5 mg/kg, po measured upto 36 hrs by LC-MS/MS analysis; type: ADME, organism-based; conditions: in vivo
[2] = Cytotoxicity against human HK-2 cells assessed as reduction in cell viability incubated for 48 hrs by MTT assay; type: toxicity, cell-based
[3] = Tmax in Sprague-Dawley rat at 5 mg/kg, po measured upto 36 hrs by LC-MS/MS analysis; type: ADME, organism-based; conditions: in vivo
[4] = biological target: T1, Broad substrate specificity ATP-binding cassette transporter ABCG2 (Homo sapiens, UniProt Q9UNQ0); assay: Inhibition of ABCG2 (unknown origin) expressed in HEK293 cells membrane vesicles assessed as inhibition of ATP-induced 14C-uric acid uptake preincubated for 15 mins followed by incubation with ATP and substrate for 5 mins by liquid scintillation counting analysis; type: toxicity, cell membranes, Membrane vesicle
T1 sequence (Q9UNQ0 whole entry): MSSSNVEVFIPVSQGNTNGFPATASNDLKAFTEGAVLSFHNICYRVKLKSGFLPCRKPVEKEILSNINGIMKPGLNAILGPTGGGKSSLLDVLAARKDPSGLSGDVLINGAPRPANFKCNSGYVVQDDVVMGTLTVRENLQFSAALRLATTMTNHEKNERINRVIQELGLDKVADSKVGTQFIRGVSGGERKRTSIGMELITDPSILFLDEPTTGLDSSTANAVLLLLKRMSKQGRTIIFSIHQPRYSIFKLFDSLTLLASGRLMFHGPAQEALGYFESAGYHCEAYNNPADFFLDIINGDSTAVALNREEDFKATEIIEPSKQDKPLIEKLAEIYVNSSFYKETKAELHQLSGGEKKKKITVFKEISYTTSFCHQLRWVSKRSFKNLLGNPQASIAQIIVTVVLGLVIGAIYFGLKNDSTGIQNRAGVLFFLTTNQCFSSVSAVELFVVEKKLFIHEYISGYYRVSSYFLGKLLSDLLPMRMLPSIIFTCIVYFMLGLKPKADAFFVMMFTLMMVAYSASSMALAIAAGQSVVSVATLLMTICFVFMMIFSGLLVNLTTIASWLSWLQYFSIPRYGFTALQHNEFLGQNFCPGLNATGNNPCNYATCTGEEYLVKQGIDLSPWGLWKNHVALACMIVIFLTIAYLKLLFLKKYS

[5] = Renal toxicity in xanthine and potassium oxonate-induced acute hyperuricemia Kunming mouse model assessed as serum creatinine level at 10 mg/kg, po measured after 3 hrs; type: organism-based; conditions: in vivo
[6] = Inhibition of URAT1 F358Y mutant (unknown origin)-mediated 14C-uric acid uptake expressed in HEK293 cells using 14C-uric acid as substrate preincubated for 30 mins followed by substrate addition and measured after 15 mins by liquid scintillation counting analysis; type: cell-based; conditions: Homo sapiens
[7] = MRT (0 to infinity) in Sprague-Dawley rat at 5 mg/kg, po by LC-MS/MS analysis; type: ADME, organism-based; conditions: in vivo
[8] = AUC (0 to infinity) in Sprague-Dawley rat at 5 mg/kg, po by LC-MS/MS analysis; type: ADME, organism-based; design: time infinity, dose 5 mg/kg, route po; conditions: in vivo
[9] = Inhibition of URAT1 F241Y mutant (unknown origin)-mediated 14C-uric acid uptake expressed in HEK293 cells using 14C-uric acid as substrate preincubated for 30 mins followed by substrate addition and measured after 15 mins by liquid scintillation counting analysis; type: cell-based; conditions: Homo sapiens
[10] = Cmax in Sprague-Dawley rat at 5 mg/kg, po measured upto 36 hrs by LC-MS/MS analysis; type: ADME, organism-based; design: time < 36 hrs, dose 5 mg/kg, route po; conditions: in vivo
[11] = Oral bioavailability in Sprague-Dawley rat at 5 mg/kg measured upto 36 hrs by LC-MS/MS analysis; type: ADME, organism-based; conditions: in vivo
[12] = Half life in Sprague-Dawley rat at 5 mg/kg, iv measured upto 36 hrs by LC-MS/MS analysis; type: ADME, organism-based; conditions: in vivo
[13] = MRT (0 to infinity) in Sprague-Dawley rat at 5 mg/kg, iv by LC-MS/MS analysis; type: ADME, organism-based; conditions: in vivo

Q: Which results are given for `N#Cc1ccc(Nc2cnccc2SCc2ccccc2C(=O)[O-])c2ccccc12.[Na+]`?
A: half-life [1]: 5.14 h; IC50 at 48 h [2]: 167 µM; Tmax [3]: 0.5 h; IC50 [4]: 26.7 µM; Activity [5]: Non-Toxic; IC50 [6]: 0.78 µM; MRT inf [7]: 3.17 h; AUC(0-inf) [8]: 5660 ng·h/mL; IC50 [9]: 0.31 µM; Cmax [10]: 7650 ng/mL; bioavailability [11]: 30.1%; half-life [12]: 4.19 h; MRT inf [13]: 4.8 h
